Experimental data from patent publication US11491134B2, “Composition for inhibiting skin cell proliferation and/or anti-inflammation method for inhibiting skin cell proliferation and/or anti-inflammation and method for treating skin diseases and/or inflammatory diseases” (Industrial Technology Research Institute, priority 2019, dated 2022).

Tested on: keratinocytes, HaCaT cells
Test: Inhibition rate on keratinocyte (HaCaT cell) proliferation, MTT
Assay type: cell-based
Conditions: Homo sapiens
Protocol: Dimethyl sulfoxide (DMSO) was used as a solvent to prepare apigenin test samples with different concentrations and luteolin test samples with different concentrations. 9 batches of experiments were performed, which respectively were Batch 1 to Batch 9. There were 6 independent experiments in each batch of experiments. In each independent experiment, inhibition rate of an apigenin test sample with a specific concentration on keratinocyte proliferation and inhibition rate of a luteolin test sample with a specific concentration on keratinocyte proliferation were determined, and inhibition rate of a combination of an apigenin test sample with the said specific concentration and a luteolin test sample with the said specific concentration on keratinocyte proliferation was determined. Between the independent experiments, concentrations of apigenin test samples used were different, and concentrations of luteolin test samples used were also different, however, mole ratios or weight ratios of apigenin test samples to luteolin test samples were the same. Moreover, between the batches of experiments, mole ratios or weight ratios of apigenin test samples to luteolin test samples were different. 5×10^3 keratinocytes, HaCaT cells, were inoculated in a 96-well culture plate and then placed in a 37° C. and 5% CO2 incubator for culturing overnight, and cell numbers at this time point (T0) was used as a benchmark for cell proliferation. After overnight culture, a test sample was added to the cells in the culture plate (refer to Table 1, and the cells of the control group were only treated with dimethyl sulfoxide) for co-culturing for 48 hours (T48). After that, the supernatant in the culture plate was removed. After the supernatant was removed, 50 μL MTT solution (0.5 mg/mL; Life Technologies Cat. No. M-6494) was added to cells and then the culture plate was placed in a 37° C. and 5% CO2 incubator for culturing for 1.5 hours. After that, 150 μL DMSO (J. T. Baker, Cat. No. 9224-03) was added to the cells in the culture plate and shaken for 5 minutes. Thereafter, the absorbance of each well of the culture plate was determined at 570 nm by a continuous wavelength microplate reader, and inhibition rate on cell proliferation was calculated through the following formula: Inhibition rate on cell proliferation=T48 Control group570 nm−T48 Experimental group570 nm)/(T48 Control group570 nm−T0 Control group570 nm) In this experiment, the synergistic effects of apigenin and luteolin were evaluated by CalcuSyn software (BIOSOFT). CalcuSyn software is an analysis software which is commonly used to analyze the drug dosage effect of single drug and multiple drugs at present. CalcuSyn software can be used to analyze drug complex interactions and automatically quantify various phenomena such as synergism and inhibition. CalcuSyn software can process the data of individual drugs and combination drugs with constant-ratio or on-constant-ratio, and can evaluate the interaction of combination drugs by the combination index (CI) (Chou and Talalay, Adv. Enzyme Regul. 22:27-55 (1984) calculated by CalcuSyn software. Calculation formula for the combination index is shown in the following: Combination index=C1/IC1+C2/IC2 C1 and C2 are the respective concentrations of the first compound and the second compound at which the activity of achieving a specific physiological or medical purpose is 50% (or 75%, or 90%) when the first compound and the second compound are analyzed in combination; IC1 and IC2 are the respective concentrations at which the activity of achieving a specific physiological or medical purpose of the first compound and the second compound is 50% (or 75%, or 90%) when the first compound and the second compound are independently analyzed. […]

SMILES: O=c1cc(-c2ccc(O)c(O)c2)oc2cc(O)cc(O)c12 [Luteolin, luteolin]
- inhibition at 3.125 µM (Batch 1, luteolin 3.125 μM/0.89 μg/mL): 0%
- inhibition at 6.25 µM (Batch 1, luteolin 6.25 μM/1.79 μg/mL): 0.9%
- inhibition at 12.5 µM (Batch 1, luteolin 12.5 μM/3.58 μg/mL): 17.2%
- inhibition at 25 µM (Batch 1, luteolin 25 μM/7.16 μg/mL): 44.6%
- inhibition at 50 µM (Batch 1, luteolin 50 μM/14.31 μg/mL): 67.7%
- inhibition at 100 µM (Batch 1, luteolin 100 μM/28.62 μg/mL): 101%
- inhibition at 1.5625 µM (Batch 2, luteolin 1.5625 μM/0.45 μg/mL): 11.3%
- inhibition at 3.125 µM (Batch 2, luteolin 3.125 μM/0.89 μg/mL): 5.1%
- inhibition at 6.25 µM (Batch 2, luteolin 6.25 μM/1.79 μg/mL): 19.6%
- inhibition at 12.5 µM (Batch 2, luteolin 12.5 μM/3.58 μg/mL): 35%
- inhibition at 25 µM (Batch 2, luteolin 25 μM/7.16 μg/mL): 53.8%
- inhibition at 50 µM (Batch 2, luteolin 50 μM/14.31 μg/mL): 75.2%
- inhibition at 0.625 µM (Batch 3, luteolin 0.625 μM/0.18 μg/mL): 1.9%
- inhibition at 1.25 µM (Batch 3, luteolin 1.25 μM/0.36 μg/mL): 2.8%
- inhibition at 2.5 µM (Batch 3, luteolin 2.5 μM/0.72 μg/mL): 4.3%
- inhibition at 5 µM (Batch 3, luteolin 5 μM/1.43 μg/mL): 13.7%
- inhibition at 10 µM (Batch 3, luteolin 10 μM/2.86 μg/mL): 31.9%
- inhibition at 20 µM (Batch 3, luteolin 20 μM/5.72 μg/mL): 55.6%
- inhibition at 0.3125 µM (Batch 4, luteolin 0.3125 μM/0.09 μg/mL): 0.4%
- inhibition at 0.625 µM (Batch 4, luteolin 0.625 μM/0.18 μg/mL): 0%
- inhibition at 1.25 µM (Batch 4, luteolin 1.25 μM/0.36 μg/mL): 0%
- inhibition at 2.5 µM (Batch 4, luteolin 2.5 μM/0.72 μg/mL): 0%
- inhibition at 5 µM (Batch 4, luteolin 5 μM/1.43 μg/mL): 0.8%
- inhibition at 10 µM (Batch 4, luteolin 10 μM/2.86 μg/mL): 6.6%
- inhibition at 0.15625 µM (Batch 5, luteolin 0.15625 μM/0.04 μg/mL): 11.4%
- inhibition at 0.3125 µM (Batch 5, luteolin 0.3125 μM/0.09 μg/mL): 14%
- inhibition at 0.625 µM (Batch 5, luteolin 0.625 μM/0.18 μg/mL): 4.3%
- inhibition at 1.25 µM (Batch 5, luteolin 1.25 μM/0.36 μg/mL): 0%
- inhibition at 2.5 µM (Batch 5, luteolin 2.5 μM/0.72 μg/mL): 0%
- inhibition at 5 µM (Batch 5, luteolin 5 μM/1.43 μg/mL): 3.3%
- inhibition at 3.125 µM (Batch 6, luteolin 3.125 μM/0.89 μg/mL): 0%
- inhibition at 6.25 µM (Batch 6, luteolin 6.25 μM/1.79 μg/mL): 0.6%
- inhibition at 12.5 µM (Batch 6, luteolin 12.5 μM/3.58 μg/mL): 18.5%
- inhibition at 25 µM (Batch 6, luteolin 25 μM/7.16 μg/mL): 42.2%
- inhibition at 50 µM (Batch 6, luteolin 50 μM/14.31 μg/mL): 57.8%
- inhibition at 100 µM (Batch 6, luteolin 100 μM/28.62 μg/mL): 94.2%
- inhibition at 3.125 µM (Batch 7, luteolin 3.125 μM/0.89 μg/mL): 8.6%
- inhibition at 6.25 µM (Batch 7, luteolin 6.25 μM/1.79 μg/mL): 19%
- inhibition at 12.5 µM (Batch 7, luteolin 12.5 μM/3.58 μg/mL): 37.5%
- inhibition at 25 µM (Batch 7, luteolin 25 μM/7.16 μg/mL): 55.1%
- inhibition at 50 µM (Batch 7, luteolin 50 μM/14.31 μg/mL): 70.1%
- inhibition at 100 µM (Batch 7, luteolin 100 μM/28.62 μg/mL): 108%
- inhibition at 3.125 µM (Batch 8, luteolin 3.125 μM/0.89 μg/mL): 5.2%
- inhibition at 6.25 µM (Batch 8, luteolin 6.25 μM/1.79 μg/mL): 13.8%
- inhibition at 12.5 µM (Batch 8, luteolin 12.5 μM/3.58 μg/mL): 33.5%
- inhibition at 25 µM (Batch 8, luteolin 25 μM/7.16 μg/mL): 50.7%
- inhibition at 50 µM (Batch 8, luteolin 50 μM/14.31 μg/mL): 63.6%
- inhibition at 100 µM (Batch 8, luteolin 100 μM/28.62 μg/mL): 100%
- inhibition at 3.125 µM (Batch 9, luteolin 3.125 μM/0.89 μg/mL): 4.2%
- inhibition at 6.25 µM (Batch 9, luteolin 6.25 μM/1.79 μg/mL): 11%
- inhibition at 12.5 µM (Batch 9, luteolin 12.5 μM/3.58 μg/mL): 30.1%
- inhibition at 25 µM (Batch 9, luteolin 25 μM/7.16 μg/mL): 47.8%
- inhibition at 50 µM (Batch 9, luteolin 50 μM/14.31 μg/mL): 62%
- inhibition at 100 µM (Batch 9, luteolin 100 μM/28.62 μg/mL): 104%
